These results are taken from patent US20250154134A1, “COMPOUND AS FAK INHIBITOR AND USE THEREOF” (WIGEN BIOMEDICINE TECHNOLOGY (SHANGHAI) CO., LTD., priority 2022, published 2025).

Each structure is given as a SMILES string.

For experiment [1], the system named is PC3 cells. Description: PC3 cell proliferation, 3D activity assay (3D culture, 14 days). The note with it: Homo sapiens, PC-3, 336 h, read-out: 3D inhibitory activity against PC3 cells IC50. The class given is cell-based, human. How it is done:
(§1) 2D activity assay: 1200 PC3 cells were seeded in a 96-well plate. After overnight adherence culture, A compound serially diluted was added. […] The growth of the cells was evaluated, and the IC50 of the compound inhibiting cell growth was calculated. 3D activity assay: PC3 cells were seeded in a 96-well plate at 1200 cells/well, and 3D culture was performed. 14 days after a compound serially diluted was added, the growth of the cells was measured. The inhibition percentage and IC50 of the compound were calculated compared to the DMSO control group.

Experiment [2] concerns PC3 cells. Description: PC3 cell proliferation, 2D activity assay (Cell Titer-Lumi, 72 h). The class given is cell-based, human. The note with it: Homo sapiens, PC-3, read-out: 2D inhibitory activity against PC3 cells IC50. How it is done:
as §1

In experiment [3] the target is FAK recombinant protein (Homo sapiens (Human), UniProt Q05397). Nature of the experiment: Inhibitory activity against FAK enzyme (HTRF, TK substrate). Format: biochemical. How it is done:
A compound serially diluted with DMSO was mixed with a FAK recombinant protein. After the mixture was left to stand at room temperature for 10 min, a biotin-labeled TK substrate (TK) and ATP were added. […] The inhibition percentage and IC50 of the compound were calculated compared to the DMSO control group.

Chain of FAK recombinant protein (Q05397 whole entry): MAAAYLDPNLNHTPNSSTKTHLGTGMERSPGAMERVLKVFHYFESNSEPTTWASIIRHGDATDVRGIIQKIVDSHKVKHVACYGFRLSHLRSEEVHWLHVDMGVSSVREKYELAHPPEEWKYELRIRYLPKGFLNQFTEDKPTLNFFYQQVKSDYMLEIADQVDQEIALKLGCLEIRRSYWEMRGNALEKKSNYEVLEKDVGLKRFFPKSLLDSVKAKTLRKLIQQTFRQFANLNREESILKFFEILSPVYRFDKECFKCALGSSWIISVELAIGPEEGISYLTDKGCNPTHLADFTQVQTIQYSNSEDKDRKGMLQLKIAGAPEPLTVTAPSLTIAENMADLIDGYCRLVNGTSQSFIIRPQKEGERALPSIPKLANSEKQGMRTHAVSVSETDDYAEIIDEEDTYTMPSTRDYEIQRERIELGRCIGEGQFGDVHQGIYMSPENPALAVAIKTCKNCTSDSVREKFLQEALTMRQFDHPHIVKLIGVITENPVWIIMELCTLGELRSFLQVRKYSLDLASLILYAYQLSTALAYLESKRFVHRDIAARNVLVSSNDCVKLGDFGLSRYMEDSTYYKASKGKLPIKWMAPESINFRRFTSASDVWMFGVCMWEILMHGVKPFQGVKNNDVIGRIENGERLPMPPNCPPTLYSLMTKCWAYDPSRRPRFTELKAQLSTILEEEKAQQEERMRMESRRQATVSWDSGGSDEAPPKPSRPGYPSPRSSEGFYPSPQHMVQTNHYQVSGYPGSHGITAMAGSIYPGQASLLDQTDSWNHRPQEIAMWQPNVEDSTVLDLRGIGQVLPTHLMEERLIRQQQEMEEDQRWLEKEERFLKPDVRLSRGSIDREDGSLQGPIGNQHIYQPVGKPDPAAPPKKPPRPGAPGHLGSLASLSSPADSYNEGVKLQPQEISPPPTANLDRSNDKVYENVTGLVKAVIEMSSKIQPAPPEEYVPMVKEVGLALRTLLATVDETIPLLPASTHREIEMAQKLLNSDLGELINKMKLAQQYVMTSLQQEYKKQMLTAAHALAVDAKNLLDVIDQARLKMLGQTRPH

Consider `CCc1cc(C(=O)NC2CCN(C)CC2)ccc1Nc1ncc(C(F)(F)F)c(Oc2cccc3c2C(=O)N(C)C32CC2)n1` [Compound 50], for which the IC50 is 5 to 50 nM in experiment [1], more than 2000 nM in experiment [2] and less than 20 nM in experiment [3].
On the same counts, the results for `COc1cc(C(=O)NC2CCC23CCN(C)CC3)ccc1Nc1ncc(C(F)(F)F)c(Cc2cccc3c2C(=O)N(C)C32CC2)n1` (stereo not drawn) [Compound 108] are 5 to 50 nM, more than 2000 nM and less than 20 nM.
As for `COc1cc(N2CCN(C)CC2)ccc1Nc1ncc(C2CC2)c(Oc2cccc3c2C(=O)N(C)C32CC2)n1` [Compound 130, 4′-((5-cyclopropyl-2-((2-methoxy-4-(4-methylpiperazin-1-yl)phenyl)amino)pyrimidin-4-yl)oxy)-2′-methylspiro[cyclopropane-1,1′-isoindolin]-3′-one], the 50% inhibitory concentration (IC50) in experiment [1] was 5 to 50 nM; in experiment [2], more than 2000 nM; in experiment [3] it was less than 20 nM.
On the same counts, the results for `CN1CCC(n2ccc(Nc3ncc(C(F)(F)F)c(Oc4cccc5c4C(=O)N(C)C54CC4)n3)n2)CC1` [Compound 97] are 5 to 50 nM, more than 2000 nM and less than 20 nM.
Take `COc1cc(N2CC3(CCN(C)CC3)OC2=O)ccc1Nc1ncc(C(F)(F)F)c(Oc2cccc3c2C(=O)N(C)C32CC2)n1` [Compound 64]: the IC50 in experiment [1] is 5 to 50 nM; in experiment [2], more than 2000 nM; in experiment [3], less than 20 nM.
The like results for `COc1cc(C(=O)NC2COC3(CCN(C)C3)C2)ccc1Nc1ncc(C(F)(F)F)c(Cc2cccc3c2C(=O)N(C)C32CC2)n1` (stereo not drawn) [Compound 105] were, in that order, 5 to 50 nM, more than 2000 nM and less than 20 nM.
Regarding `COc1cc(N2CC3(CCN(C)CC3)C2)ccc1Nc1ncc(C2CC2)c(Oc2cccc3c2C(=O)N(C)C32CC2)n1` [Compound 131, 4′-((5-cyclopropyl-2-((2-methoxy-4-(7-methyl-2,7-diazaspiro[3.5]nonan-2-yl)phenyl)amino)pyrimidin-4-yl)oxy)-2′-methylspiro[cyclopropane-1,1′-isoindolin]-3′-one], the values for the IC50 in experiment [1], in experiment [2] and in experiment [3] were 5 to 50 nM, more than 2000 nM and less than 20 nM, respectively.
On to `COc1cc(N2CCC3CN(C)CCC32)ccc1Nc1ncc(Cl)c(Oc2cccc3c2C(=O)N(C)C32CC2)n1` (stereo not drawn) [Compound 168], for which the values for the IC50 in experiment [1], in experiment [2] and in experiment [3] were less than 5 nM, more than 2000 nM and less than 20 nM, respectively.
In the case of `COc1cc(C(=O)NC2CCC23CCN(C)CC3)c(F)cc1Nc1ncc(C(F)(F)F)c(Oc2cccc3c2C(=O)N(C)C32CC2)n1` (stereo not drawn) [Compound 12], the figures for the IC50 in experiment [1], in experiment [2] and in experiment [3] were less than 5 nM, more than 2000 nM and less than 20 nM, respectively.
The like results for `CNC(=O)c1ccc(Nc2ncc(C(F)(F)F)c(Oc3cccc4c3C(=O)N(C)C43CC3)n2)c(OC)c1` [Compound 2] were, in that order, 5 to 50 nM, more than 2000 nM and less than 20 nM.
On the same counts, the results for `CCN1CCC(NC(=O)c2ccc(Nc3ncc(C(F)(F)F)c(Oc4cccc5c4C(=O)N(C)C54CC4)n3)c(OC)c2)CC1` [Compound 37] are less than 5 nM, more than 2000 nM and less than 20 nM.
On the same counts, the results for `COc1cc(C(=O)NC2CC3(CCN(C)CC3)C2)ccc1Nc1ncc(C(F)(F)F)c(Oc2cccc3c2C(=O)N(C)C32CC2)n1` [Compound 9] are less than 5 nM, more than 2000 nM and less than 20 nM.
`COc1cc(N2CCC(N3CCN(C)CC3)CC2)ccc1Nc1ncc(Br)c(Oc2cccc3c2C(=O)N(C)C32CC2)n1` [Compound 182]: the IC50 in experiment [1] is less than 5 nM; in experiment [2] it was more than 2000 nM; in experiment [3], less than 20 nM.
For `COc1cc(C(=O)NC2CCN(CS(C)(=O)=O)CC2)ccc1Nc1ncc(C(F)(F)F)c(Oc2cccc3c2C(=O)N(C)C32CC2)n1` [Compound 38], the IC50 was 5 to 50 nM in experiment [1], more than 2000 nM in experiment [2] and less than 20 nM in experiment [3].
Regarding `COc1cc(C(=O)NC2CCC3(CCN(C)C3)C2)ccc1Nc1ncc(C(F)(F)F)c(Cc2cccc3c2C(=O)N(C)C32CC2)n1` (stereo not drawn) [Compound 104], the IC50 in experiment [1] was 5 to 50 nM; in experiment [2] it was more than 2000 nM; in experiment [3] it was less than 20 nM.
On the same counts, the results for `COc1cc(C(=O)NC2CC3(CCNCC3)C2)ccc1Nc1ncc(C(F)(F)F)c(Oc2cccc3c2C(=O)N(C)C32CC2)n1` [Compound 44] are 5 to 50 nM, more than 2000 nM and less than 20 nM.
For `COc1cc(C(=O)N2CCC3(CCN(C)CC3)CC2)ccc1Nc1ncc(C(F)(F)F)c(Oc2cccc3c2C(=O)N(C)C32CC2)n1` [Compound 56], the IC50 in experiment [1] is more than 50 nM; in experiment [2], more than 2000 nM; in experiment [3], less than 20 nM.
On the same counts, the results for `COc1cc(N2CCN(C)CC2=O)ccc1Nc1ncc(C(F)(F)F)c(Oc2cccc3c2C(=O)N(C)C32CC2)n1` [Compound 83] are more than 50 nM, more than 2000 nM and less than 20 nM.
The like results for `COc1cc(C(=O)N2CCC3(CCN(C)C3)C2)ccc1Nc1ncc(C(F)(F)F)c(Oc2cccc3c2C(=O)N(C)C32CC2)n1` (stereo not drawn) [Compound 57] were, in that order, 5 to 50 nM, more than 2000 nM and less than 20 nM.
As for `COc1cc(C(=O)NC2CCC23CCN(C)CC3)ccc1Nc1ncc(C(F)(F)F)c(Oc2cccc3c2C(=O)N(C)C32CC2)n1` (stereo not drawn) [Compound 13], the IC50 was less than 5 nM in experiment [1], more than 2000 nM in experiment [2] and less than 20 nM in experiment [3].
Consider `COc1cc(C(=O)NC2CCN3CCOC3C2)ccc1Nc1ncc(C(F)(F)F)c(Oc2cccc3c2C(=O)N(C)C32CC2)n1` (stereo not drawn) [Compound 29], for which the IC50 in experiment [1] was less than 5 nM; in experiment [2], more than 2000 nM; in experiment [3] it was less than 20 nM.
On the same counts, the results for `COc1cc(N2CC3(CN(C)C3)C2)ccc1Nc1ncc(Cl)c(Oc2cccc3c2C(=O)N(C)C32CC2)n1` [Compound 146] are 5 to 50 nM, more than 2000 nM and less than 20 nM.
The like results for `COc1cc(C(=O)NC2CCC3(CCN(C)C3)C2)c(F)cc1Nc1ncc(C(F)(F)F)c(Oc2cccc3c2C(=O)N(C)C32CC2)n1` (stereo not drawn) [Compound 24] were, in that order, 5 to 50 nM, more than 2000 nM and less than 20 nM.
On the same counts, the results for `COc1cc(C(=O)NC2CC3(CCN(C)CC3)C2)c(F)cc1Nc1ncc(C(F)(F)F)c(Cc2cccc3c2C(=O)N(C)C32CC2)n1` [Compound 102] are 5 to 50 nM, more than 2000 nM and less than 20 nM.
Turning to `COc1cc(N2CCC3CN(C)CC32)ccc1Nc1ncc(Cl)c(Oc2cccc3c2C(=O)N(C)C32CC2)n1` (stereo not drawn) [Compound 172], the IC50 in experiment [1] is 5 to 50 nM; in experiment [2], more than 2000 nM; in experiment [3], less than 20 nM.
Take `COc1cc(N2CCC3(CC2)CN(C)C3)c(F)cc1Nc1ncc(C(F)(F)F)c(Oc2cccc3c2C(=O)N(C)C32CC2)n1` [Compound 126]: the IC50 is less than 5 nM in experiment [1], more than 2000 nM in experiment [2] and less than 20 nM in experiment [3].
With `COc1cc(N2CCC(N3CCN(C)CC3)CC2)ccc1Nc1ncc(C#N)c(Oc2cccc3c2C(=O)N(C)C32CC2)n1` [Compound 200], the IC50 in experiment [1] is less than 5 nM; in experiment [2], more than 2000 nM; in experiment [3], less than 20 nM.
`CN1C(=O)c2c(Oc3nc(Nc4cc5n(n4)CCOC5)ncc3C(F)(F)F)cccc2C12CC2` [Compound 94]: the figures for the IC50 in experiment [1], in experiment [2] and in experiment [3] were less than 5 nM, more than 2000 nM and less than 20 nM, respectively.
Turning to `COc1cc(C(=O)NC2CC3(CCN(C)CC3)C2)ccc1Nc1ncc(Cl)c(Oc2cccc3c2C(=O)N(C)C32CC2)n1` [Compound 133, 4-((5-chloro-4-((2′-methyl-3′-oxospiro[cyclopropane-1,1′-isoindolin]-4′-yl)oxy)pyrimidin-2-yl)amino)-3-methoxy-N-(7-methyl-7-azaspiro[3.5]nonan-2-yl)benzamide], the results for the IC50 in experiment [1], in experiment [2] and in experiment [3] were 5 to 50 nM, more than 2000 nM and less than 20 nM, respectively.
`COc1cc(CN(C)C2CCN(C)CC2)c(F)cc1Nc1ncc(Cl)c(Oc2cccc3c2C(=O)N(C)C32CC2)n1` [Compound 156]: the IC50 is 5 to 50 nM in experiment [1], more than 2000 nM in experiment [2] and less than 20 nM in experiment [3].
The like results for `COc1cc(C(=O)NC2CCN(C)CC2OC)ccc1Nc1ncc(C(F)(F)F)c(Oc2cccc3c2C(=O)N(C)C32CC2)n1` (stereo not drawn) [Compound 34] were, in that order, less than 5 nM, more than 2000 nM and less than 20 nM.
Turning to `COc1cc(C(=O)NC2CC3(CCN(C)CC3)C2)ccc1Nc1ncc(C#N)c(Oc2cccc3c2C(=O)N(C)C32CC2)n1` [Compound 195], the IC50 is less than 5 nM in experiment [1], more than 2000 nM in experiment [2] and less than 20 nM in experiment [3].
On the same counts, the results for `[2H]C([2H])([2H])N1CCC2(CC1)CC(NC(=O)c1cc(OC)c(Nc3ncc(C(F)(F)F)c(Oc4cccc5c4C(=O)N(C)C54CC4)n3)cc1F)C2` [Compound 47] are less than 5 nM, more than 2000 nM and less than 20 nM.
`COc1cc(N2CC3CC(C2)N3C)ccc1Nc1ncc(Cl)c(Oc2cccc3c2C(=O)N(C)C32CC2)n1` [Compound 165]: the figures for the IC50 in experiment [1], in experiment [2] and in experiment [3] were 5 to 50 nM, more than 2000 nM and less than 20 nM, respectively.
The like results for `CCN1CCC2(CC1)CC(NC(=O)c1cc(OC)c(Nc3ncc(C(F)(F)F)c(Oc4cccc5c4C(=O)N(C)C54CC4)n3)cc1F)C2` [Compound 48] were, in that order, 5 to 50 nM, more than 2000 nM and less than 20 nM.
